In patent US12624018B1, “Inhibitors of RIPK2 and medical uses thereof” (Odyssey Therapeutics, Inc., priority 2022, dated 2026) one finds IC50 data, which are given here for 26 compounds.

The target of this assay is T1, RIPK2 enzyme (Homo sapiens, UniProt O43353).
T1 construct: purchased Carna 09-128
Briefly: RIPK2 inhibition (ADP-Glo Kinase Assay). Format: biochemical. As to conditions: RIPK2 5 nM, ATP 150 μM, MBP substrate, read-out: RIPK2 IC50. The gist of the method:
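Human RIPK2 (5 nM) preincubated with compound 30 min at room temperature in 50 mM HEPES pH 7.5, 10 mM MgCl2, 2 mM DTT, 1 mM EGTA, 0.01% Brij-35, 0.05% BSA; native swine MBP as substrate. ADP formed quantified by ADP-Glo luminescence; percent inhibition relative to DMSO and no-enzyme controls.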
Background: In ADP-Glo the light output rises with the ADP produced.

T1 sequence (O43353 1-299 limits assumed): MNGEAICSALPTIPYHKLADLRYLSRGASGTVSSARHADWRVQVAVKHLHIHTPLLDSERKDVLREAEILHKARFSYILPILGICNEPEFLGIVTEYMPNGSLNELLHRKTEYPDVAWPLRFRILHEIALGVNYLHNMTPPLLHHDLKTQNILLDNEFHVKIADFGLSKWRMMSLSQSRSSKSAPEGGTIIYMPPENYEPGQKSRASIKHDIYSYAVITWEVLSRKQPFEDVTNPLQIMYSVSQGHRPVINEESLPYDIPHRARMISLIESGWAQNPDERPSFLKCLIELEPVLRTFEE

On to `Cc1cc(CC(=O)Nc2cnn(C(C)(C)C)c2)c(F)cc1Oc1ccnc2ccc(C(=O)N3CCOCC3)cc12` [Compound 378, N-(1-(tert-butyl)-1H-pyrazol-4-yl)-2-(2-fluoro-5-methyl-4-((6-(morpholine-4-carbonyl)quinolin-4-yl)oxy)phenyl) acetamide], for which the IC50 was less than 2.5 nM. The value for `Cc1cc(CC(=O)Nc2cnn(C(C)(C)C)c2)c(F)cc1Oc1ccnc2ccc(C(=O)N3CCNCC3)cc12` [Compound 379, N-(1-(tert-butyl)-1H-pyrazol-4-yl)-2-(2-fluoro-5-methyl-4-((6-(piperazine-1-carbonyl)quinolin-4-yl)oxy)phenyl) acetamide] was less than 2.5 nM. The value for `Cc1cc(CC(=O)Nc2cnn(C(C)(C)C)c2)c(F)cc1Oc1ccnc2ccc(C(=O)N3CCC(O)CC3)cc12` [Compound 380, N-(1-(tert-butyl)-1H-pyrazol-4-yl)-2-(2-fluoro-4-((6-(4-hydroxy-piperidine-1-carbonyl)quinolin-4-yl)oxy)-5-methyl-phenyl) acetamide] was less than 2.5 nM; that for `Cc1cc(CC(=O)Nc2cnn(C(C)(C)C)c2)c(F)cc1Oc1ccnc2ccc(P(C)(C)=O)cc12` [Compound 381, N-(1-(tert-butyl)-1H-pyrazol-4-yl)-2-(4-((6-(dimethylphosphoryl)quinolin-4-yl)oxy)-2-fluoro-5-methylphenyl) acetamide] was less than 2.5 nM. The value for `COc1cc2nccc(Oc3ccc(CC(=O)Nc4cnn(C(C)(C)C)c4)c(F)c3C)c2cc1P(C)(C)=O` [Compound 382, N-(1-(tert-butyl)-1H-pyrazol-4-yl)-2-(4-((6-(dimethylphosphoryl)-7-methoxyquinolin-4-yl)oxy)-2-fluoro-3-methylphenyl) acetamide] was less than 2.5 nM.

For the compound `Cc1c(Oc2ccnc3ccc(P(C)(C)=O)cc23)ccc(CC(=O)Nc2cc(C(C)(C)C)n[nH]2)c1F` [Compound 383, N-(5-(tert-butyl)-1H-pyrazol-3-yl)-2-(4-((6-(dimethylphosphoryl)quinolin-4-yl)oxy)-2-fluoro-3-methylphenyl) acetamide], the concentration for half-maximal inhibition (IC50) was less than 2.5 nM. Next, `Cc1c(Oc2ccnc3ccc(C(=O)N4C[C@@H](C)O[C@@H](C)C4)cc23)ccc(CC(=O)Nc2cnn(C(C)(C)C)c2)c1F` [Compound 384, N-(1-(tert-butyl)-1H-pyrazol-4-yl)-2-(4-((6-((2R,6S)-2,6-dimethyl-morpholine-4-carbonyl)quinolin-4-yl)oxy)-2-fluoro-3-methyl-phenyl) acetamide]: less than 2.5 nM; `Cc1c(Oc2ccnc3ccc(C(=O)N4C[C@@H](C)N[C@@H](C)C4)cc23)ccc(CC(=O)Nc2cnn(C(C)(C)C)c2)c1F` [Compound 385, N-(1-(tert-butyl)-1H-pyrazol-4-yl)-2-(4-((6-((3R,5S)-3,5-dimethyl-piperazine-1-carbonyl)quinolin-4-yl)oxy)-2-fluoro-3-methylphenyl) acetamide]: less than 2.5 nM; `Cc1c(Oc2ccnc3ccc(S(=O)(=O)N4C[C@@H](C)O[C@@H](C)C4)cc23)ccc(CC(=O)Nc2cnn(C(C)(C)C)c2)c1F` [Compound 386, N-(1-(tert-butyl)-1H-pyrazol-4-yl)-2-(4-((6-(((2R,6S)-2,6-dimethylmorpholino)sulfonyl)quinolin-4-yl)oxy)-2-fluoro-3-methylphenyl)acetamide]: less than 2.5 nM. The value for `Cc1c(Oc2ccnc3ccc(S(=O)(=O)N4C[C@@H](C)N[C@@H](C)C4)cc23)ccc(CC(=O)Nc2cnn(C(C)(C)C)c2)c1F` [Compound 387, N-(1-(tert-butyl)-1H-pyrazol-4-yl)-2-(4-((6-(((3R,5S)-3,5-dimethylpiperazin-1-yl)sulfonyl)quinolin-4-yl)oxy)-2-fluoro-3-methylphenyl)acetamide] was less than 2.5 nM; that for `Cc1cc(CC(=O)Nc2cnn(C(C)(C)C)c2)c(F)cc1Oc1ccnc2ccc(C(=O)N3C[C@@H](C)N[C@@H](C)C3)cc12` [Compound 388, N-(1-(tert-butyl)-1H-pyrazol-4-yl)-2-(4-((6-((3R,5S)-3,5-dimethyl-piperazine-1-carbonyl)quinolin-4-yl)oxy)-2-fluoro-5-methyl-phenyl) acetamide] was less than 2.5 nM.

Regarding `Cc1cc(CC(=O)Nc2cnn(C(C)(C)C)c2)c(F)cc1Oc1ccnc2ccc(S(=O)(=O)N3C[C@@H](C)O[C@@H](C)C3)cc12` [Compound 389, N-(1-(tert-butyl)-1H-pyrazol-4-yl)-2-(4-((6-(((2R,6S)-2,6-dimethylmorpholino)sulfonyl)quinolin-4-yl)oxy)-2-fluoro-5-methylphenyl)acetamide], the IC50 was determined as 2.9 nM.

Consider `Cc1cc(CC(=O)Nc2cnn(C(C)(C)C)c2)c(F)cc1Oc1ccnc2ccc(S(=O)(=O)N3C[C@@H](C)N[C@@H](C)C3)cc12` [Compound 390, N-(1-(tert-butyl)-1H-pyrazol-4-yl)-2-(4-((6-(((3R,5S)-3,5-dimethylpiperazin-1-yl)sulfonyl)quinolin-4-yl)oxy)-2-fluoro-5-methylphenyl)acetamide], for which the IC50 was less than 2.5 nM. Next, `Cc1cc(CC(=O)Nc2cnn(C(C)(C)C)c2)c(F)cc1Oc1ccnc2ccc(C(=O)NCC3COC3)cc12` [Compound 391, 4-(4-(2-((1-(tert-butyl)-1H-pyrazol-4-yl)amino)-2-oxoethyl)-5-fluoro-2-methyl-phenoxy)-N-(oxetan-3-ylmethyl) quinoline-6-carboxamide]: less than 2.5 nM. Next, `Cc1cc(CC(=O)Nc2cnn(C(C)(C)C)c2)c(F)cc1Oc1ccnc2ccc(C(=O)NC3COC3)cc12` [Compound 392, 4-(4-(2-((1-(tert-butyl)-1H-pyrazol-4-yl)amino)-2-oxoethyl)-5-fluoro-2-methyl-phenoxy)-N-(oxetan-3-yl)quinoline-6-carboxamide]: less than 2.5 nM; `Cc1cc(CC(=O)Nc2cnn(C(C)(C)C)c2)c(F)cc1Oc1ccnc2ccc(C(=O)N[C@H]3C[C@H](O)C3)cc12` [Compound 393, 4-(4-(2-((1-(tert-butyl)-1H-pyrazol-4-yl)amino)-2-oxoethyl)-5-fluoro-2-methyl-phenoxy)-N-((1r,3r)-3-hydroxy-cyclobutyl) quinoline-6-carboxamide]: less than 2.5 nM. As to `Cc1cc(CC(=O)Nc2cnn(C(C)(C)C)c2)c(F)cc1Oc1ccnc2ccc(C(=O)N[C@H]3C[C@@H](O)C3)cc12` [Compound 394, 4-(4-(2-((1-(tert-butyl)-1H-pyrazol-4-yl)amino)-2-oxoethyl)-5-fluoro-2-methyl-phenoxy)-N-((1s,3s)-3-hydroxy-cyclobutyl) quinoline-6-carboxamide], the IC50 is less than 2.5 nM. In the case of `Cc1cc(CC(=O)Nc2cnn(C(C)(C)C)c2)c(F)cc1Oc1ccnc2ccc(C(=O)NC3CNC3)cc12` [Compound 397, N-(azetidin-3-yl)-4-(4-(2-((1-(tert-butyl)-1H-pyrazol-4-yl)amino)-2-oxoethyl)-5-fluoro-2-methyl-phenoxy) quinoline-6-carboxamide], the IC50 was less than 2.5 nM. With `Cc1cc(CC(=O)Nc2cnn(C(C)(C)C)c2)c(F)cc1Oc1ccnc2ccc(C(=O)NC3CC(F)(F)C3)cc12` [Compound 398, 4-(4-(2-((1-(tert-butyl)-1H-pyrazol-4-yl)amino)-2-oxoethyl)-5-fluoro-2-methyl-phenoxy)-N-(3,3-difluoro-cyclobutyl) quinoline-6-carboxamide], the IC50 is less than 2.5 nM. Next, `Cc1c(Oc2ccnc3ccc(C(=O)NCC4COC4)cc23)ccc(CC(=O)Nc2cnn(C(C)(C)C)c2)c1F` [Compound 399, 4-(4-(2-((1-(tert-butyl)-1H-pyrazol-4-yl)amino)-2-oxoethyl)-3-fluoro-2-methyl-phenoxy)-N-(oxetan-3-ylmethyl) quinoline-6-carboxamide]: less than 2.5 nM; `Cc1c(Oc2ccnc3ccc(C(=O)NC4COC4)cc23)ccc(CC(=O)Nc2cnn(C(C)(C)C)c2)c1F` [Compound 400, 4-(4-(2-((1-(tert-butyl)-1H-pyrazol-4-yl)amino)-2-oxoethyl)-3-fluoro-2-methyl-phenoxy)-N-(oxetan-3-yl)quinoline-6-carboxamide]: less than 2.5 nM; `Cc1c(Oc2ccnc3ccc(C(=O)N[C@H]4C[C@H](O)C4)cc23)ccc(CC(=O)Nc2cnn(C(C)(C)C)c2)c1F` [Compound 401, 4-(4-(2-((1-(tert-butyl)-1H-pyrazol-4-yl)amino)-2-oxoethyl)-3-fluoro-2-methyl-phenoxy)-N-((1r,3r)-3-hydroxy-cyclobutyl) quinoline-6-carboxamide]: less than 2.5 nM. For `Cc1c(Oc2ccnc3ccc(C(=O)N[C@H]4C[C@@H](O)C4)cc23)ccc(CC(=O)Nc2cnn(C(C)(C)C)c2)c1F` [Compound 402, 4-(4-(2-((1-(tert-butyl)-1H-pyrazol-4-yl)amino)-2-oxoethyl)-3-fluoro-2-methyl-phenoxy)-N-((1s,3s)-3-hydroxy-cyclobutyl) quinoline-6-carboxamide], the IC50 was less than 2.5 nM.

Take `Cc1c(Oc2ccnc3ccc(C(=O)NC4CNC4)cc23)ccc(CC(=O)Nc2cnn(C(C)(C)C)c2)c1F` [Compound 405, N-(azetidin-3-yl)-4-(4-(2-((1-(tert-butyl)-1H-pyrazol-4-yl)amino)-2-oxoethyl)-3-fluoro-2-methylphenoxy)quinoline-6-carboxamide]: the half-inhibitory concentration (IC50) was less than 2.5 nM. Next, `Cc1c(Oc2ccnc3ccc(C(=O)NC4CC(F)(F)C4)cc23)ccc(CC(=O)Nc2cnn(C(C)(C)C)c2)c1F` [Compound 406, 4-(4-(2-((1-(tert-butyl)-1H-pyrazol-4-yl)amino)-2-oxoethyl)-3-fluoro-2-methylphenoxy)-N-(3,3-difluorocyclobutyl)quinoline-6-carboxamide]: less than 2.5 nM. As for `Cc1c(Oc2ccnc3ccc(CC4CCNCC4)cc23)ccc(CC(=O)Nc2cnn(C(C)(C)C)c2)c1F` [Compound 407, N-(1-(tert-butyl)-1H-pyrazol-4-yl)-2-(2-fluoro-3-methyl-4-((6-(piperidin-4-ylmethyl)quinolin-4-yl)oxy)phenyl)acetamide], the half-maximal inhibitory concentration (IC50) is less than 2.5 nM.

The IC50 is the point on the concentration scale where inhibition reaches its midpoint.
